Measurements published in ChEMBL document CHEMBL1201862, “PubChem BioAssay data set” (2004).
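Growth conditions: 96-well plates. Treatment: test compound, 48 hours, 5 concentrations. Analysis: linear interpolation between bracketing concentrations; unreached endpoints set to highest concentration. GI50: concentration for 50% inhibition of growth.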 Activity calls are given as the source filed them. No stated cut-off is given here; in the data, active = GI50 up to about 1.1 µM and inactive = higher.

Legend:
Assay in all cases: NCI-60 cell line screen, 48 h
[1] = test system: SK-MEL-28
[2] = test system: SK-MEL-5
[3] = test system: HL-60
[4] = test system: A549
[5] = test system: SF-539
[6] = test system: SF-295
[7] = test system: HCT-116
[8] = test system: SW-620
[9] = test system: SR
[10] = test system: MDA-MB-435
[11] = test system: COLO 205
[12] = test system: NCI-H226
[13] = test system: HOP-62
[14] = test system: MDA-N
[15] = test system: UACC-257
[16] = test system: HOP-92
[17] = test system: NCI-H522
[18] = test system: PC-3
[19] = test system: SN12C
[20] = test system: SK-MEL-2

CSc1nc(NC2CCCC2)c2cc[nH]c2n1
GI50 [1]: 92 µM (inactive) | GI50 [2]: 35.2 µM (inactive) | GI50 [3]: 20 µM (inactive) | GI50 [4]: 50.6 µM (inactive) | GI50 [5]: > 100 µM (inactive) | GI50 [6]: 34.8 µM (inactive) | GI50 [7]: 35.2 µM (inactive) | GI50 [8]: > 100 µM (inactive) | GI50 [9]: 22.3 µM (inactive) | GI50 [10]: 59.2 µM (inactive) | GI50 [11]: 48.4 µM (inactive) | GI50 [12]: 87.5 µM (inactive) | GI50 [13]: > 100 µM (inactive) | GI50 [14]: 54.3 µM (inactive) | GI50 [15]: 55.5 µM (inactive) | GI50 [16]: 30.1 µM (inactive) | GI50 [17]: 66.8 µM (inactive) | GI50 [18]: 43.5 µM (inactive) | GI50 [19]: > 100 µM (inactive)

CCCCCCCCCCOC1C(C(O)CNCCCN(C)C)OC2OC3(CCCCC3)OC21 (configuration not stated)
GI50 [1]: 1.66 µM (inactive) | GI50 [2]: 1.89 µM (inactive) | GI50 [3]: 1.69 µM (inactive) | GI50 [4]: 3.32 µM (inactive) | GI50 [6]: 1.86 µM (inactive) | GI50 [7]: 1.99 µM (inactive) | GI50 [8]: 1.74 µM (inactive) | GI50 [9]: 0.329 µM (active) | GI50 [10]: 2.03 µM (inactive) | GI50 [11]: 2 µM (inactive) | GI50 [12]: 18.5 µM (inactive) | GI50 [13]: 1.75 µM (inactive) | GI50 [14]: 1.96 µM (inactive) | GI50 [15]: 4.05 µM (inactive) | GI50 [16]: 1.07 µM (active) | GI50 [17]: 1.82 µM (inactive) | GI50 [18]: 2.26 µM (inactive) | GI50 [20]: 2.32 µM (inactive) | GI50 [19]: 2.33 µM (inactive)

N=C(N)NCCCC(NC(=O)OCCCCCn1ccc(N)nc1=O)C(=O)O (configuration not stated)
GI50 [1]: > 100 µM (inactive) | GI50 [3]: > 100 µM (inactive) | GI50 [4]: > 100 µM (inactive) | GI50 [5]: > 100 µM (inactive) | GI50 [6]: > 100 µM (inactive) | GI50 [7]: > 100 µM (inactive) | GI50 [8]: > 100 µM (inactive) | GI50 [9]: > 100 µM (inactive) | GI50 [10]: > 100 µM (inactive) | GI50 [11]: > 100 µM (inactive) | GI50 [12]: > 100 µM (inactive) | GI50 [13]: > 100 µM (inactive) | GI50 [14]: > 100 µM (inactive) | GI50 [15]: > 100 µM (inactive) | GI50 [16]: > 100 µM (inactive) | GI50 [18]: > 100 µM (inactive) | GI50 [20]: > 100 µM (inactive) | GI50 [19]: > 100 µM (inactive)

COc1ccc2o/c(=N\c3ccc(F)cc3)c(C(N)=O)cc2c1
GI50 [1]: > 100 µM (inactive) | GI50 [2]: > 100 µM (inactive) | GI50 [3]: > 100 µM (inactive) | GI50 [4]: 64.3 µM (inactive) | GI50 [6]: 33.7 µM (inactive) | GI50 [7]: 22.8 µM (inactive) | GI50 [8]: > 100 µM (inactive) | GI50 [9]: > 100 µM (inactive) | GI50 [10]: > 100 µM (inactive) | GI50 [11]: > 100 µM (inactive) | GI50 [12]: 36.6 µM (inactive) | GI50 [13]: 29.1 µM (inactive) | GI50 [14]: > 100 µM (inactive) | GI50 [15]: > 100 µM (inactive) | GI50 [16]: 27.4 µM (inactive) | GI50 [17]: 28.9 µM (inactive) | GI50 [18]: > 100 µM (inactive) | GI50 [20]: 22.8 µM (inactive) | GI50 [19]: 42 µM (inactive)

CC(C)CCNC(=O)c1ccc(CNC(=O)/C=C/c2ccc(-c3ccccc3[N+](=O)[O-])o2)cc1
GI50 [1]: 16.6 µM (inactive) | GI50 [2]: 18.1 µM (inactive) | GI50 [3]: 11.6 µM (inactive) | GI50 [4]: 68.2 µM (inactive) | GI50 [6]: 42.7 µM (inactive) | GI50 [7]: 34.2 µM (inactive) | GI50 [8]: 41.5 µM (inactive) | GI50 [9]: 91.8 µM (inactive) | GI50 [10]: 34.9 µM (inactive) | GI50 [11]: > 100 µM (inactive) | GI50 [12]: 21.9 µM (inactive) | GI50 [13]: 24.3 µM (inactive) | GI50 [14]: 89.5 µM (inactive) | GI50 [15]: 47 µM (inactive) | GI50 [16]: > 10 µM (inactive) | GI50 [18]: > 100 µM (inactive) | GI50 [20]: 95.7 µM (inactive) | GI50 [19]: > 100 µM (inactive)

CC1=CCC[C@]2(C)C1=CC(=O)O[C@H]2c1ccoc1
GI50 [1]: > 100 µM (inactive) | GI50 [2]: > 100 µM (inactive) | GI50 [3]: 49.8 µM (inactive) | GI50 [4]: > 100 µM (inactive) | GI50 [6]: > 100 µM (inactive) | GI50 [7]: > 100 µM (inactive) | GI50 [8]: > 100 µM (inactive) | GI50 [9]: > 100 µM (inactive) | GI50 [10]: > 100 µM (inactive) | GI50 [11]: > 100 µM (inactive) | GI50 [12]: > 100 µM (inactive) | GI50 [13]: > 100 µM (inactive) | GI50 [14]: > 100 µM (inactive) | GI50 [15]: > 100 µM (inactive) | GI50 [16]: > 100 µM (inactive) | GI50 [17]: > 100 µM (inactive) | GI50 [18]: > 100 µM (inactive) | GI50 [20]: > 100 µM (inactive) | GI50 [19]: > 100 µM (inactive)
